For series [1], the target named is T1, HDAC3 (Homo sapiens, UniProt O15379).
T1 construct: is full-length with C-terminal his tag and human NCOR2, N-terminal GST tag; His (C); purchased BPS Biosciences 50003; host or cells: baculovirus infected Sf9 cells
The series is described as follows: HDAC enzyme activity assay (fluorogenic substrate), HDAC3. It is filed as biochemical. The settings on record: recombinant enzyme; read-out: HDAC3 inhibition (IC50).

Series [2] relates to pCREB. The series is described as follows: PDE activity in wild type primary neurons (Western blot pCREB). It is filed as cell-based. The settings on record: Mus musculus, Neuron, 0.5 h, 30 min, EC50 = 50% increase in pCREB over basal.
Series [3] is described as follows: Pharmacokinetics, plasma and brain concentrations in wild type mice. The settings on record: mouse, ip; for CMax (brain; nmol/Kg): in vivo; for Tmax / Cmax: single intraperitoneal injection, wild type mice; for Tmax: time of maximum concentration in brain; for Cmax: plasma, at tMax, (Standard Deviation). Format: in vivo. The protocol:
Plasma and brain samples for measuring compounds concentrations were collected at predetermined times from four wild type mice per point. Three time points were measured: 0.25, 0.5 and 1.0 hour. Compounds concentration was measured using a Xevo-TQ MS triple quadropole mass spectrometer with an electrospray ionization (ESI) source and an Acquity UPLC (Waters, Manchester, UK).
[…]. Compounds were injected as a single intraperitoneal injection. Animals were killed by decapitation.
Plasma. Blood was collected into tubes containing EDTA and plasma was collected via centrifugation (4° C., 13200 rpm, 5 min) and stored at −80° C. until analysis.
Brain. Brains were collected immediately after mice death. The brains were excised, weighed and frozen at −80° C. until further process for analysis.
Chromatographic separation was performed by gradient elution at 0.4 mL/min using an Acquity UPLC BEH C18 column (100×2.1 mm, 1.7 μm particle size; Waters). The mobile phase consisted of A: water with 0.1% formic acid, B: methanol with 0.1% formic acid. After 1.5 min at the initial condition of 95% A, solvent B was increased from 5% to 100% over 2 min, maintained at 100% for 1.5 min, then a linear gradient to initial conditions was applied for 0.1 min and maintained for 3.4 minutes to re-equilibrate the column, giving a cycle time of 8.5 min. The autosampler temperature was set at 10° C. and column temperature at 45° C.
Compounds were monitored using a triple quadrupole mass spectrometer equipped with an electrospray ionization interface. For detection and quantification, a capillary voltage of 3.5 kV and a cone voltage of 38 V were used. Source and desolvation temperatures were 150° C. and 650° C., respectively. Ultra-high purity nitrogen was used for cone gas (75 L h^−1) and desolvation gas (1000 L h^−1). The electrospray ionization operated in the positive mode, and the collision gas used was ultra-pure argon at a flow rate of 0.15 mL min^−1.
Quantification was achieved by external calibration using matrix-matched standards. Concentrations were calculated using a weighted least-squares linear regression (W=1/×). […]. The mixture was then agitated for 10 min and centrifuged at 13200 rpm for 5 min at 4° C. The resulting supernatants were transferred to a Ostro plate (Waters, Manchester, UK), designed to remove phospholipids. The resulting eluents were evaporated at 37° C. under a stream of nitrogen. Residues were dissolved in 75 μL of a mixture of methanol and water (50:50, v:v). A 10-uL aliquot of the resulting solution was injected onto the LC-MS/MS system for analysis. Frozen plasma samples were thawed at room temperature, vortexed thoroughly and subjected to the above described extraction procedure. Brain samples were thawed unassisted at room temperature and homogenized using a Branson 250 ultrasonic sonifier (Branson, Danbury, Conn., USA). When homogenized, 75 mg were weighted and extracted as described previously.
Concentration values obtained from the LC-MS/MS analyses are described in Table 4.

The target in series [4] is T2, PDE5A (Homo sapiens, UniProt O76074).
T2 construct: they are full-length with N-terminal GST tag; GST (N); purchased BPS Biosciences 60050; host or cells: baculovirus infected Sf9 cells
The series is described as follows: PDE enzyme activity assay (HTRF cGMP), PDE5A. Format: biochemical. The settings on record: recombinant enzyme; read-out: PDE5A1 inhibition (IC50). In general terms: Time-resolved FRET reads energy transfer from a long-lived donor to a nearby acceptor.

The target in series [5] is HDAC1 (Homo sapiens, UniProt Q13547). The series is described as follows: HDAC enzyme activity assay (fluorogenic substrate), HDAC1. The settings on record: recombinant enzyme; read-out: HDAC1 inhibition (IC50). Format: biochemical.
Series [6] deals with acetylated-α-tubulin. The series is described as follows: AD-related markers in Tg2576 neurons: acetylated-tubulin. The settings on record: Mus musculus, Neuron, 48 h, treated two days, EC50 = 50% increase in acetylated-α-tubulin over basal, read-out: AcTub (EC50). Format: cell-based.
In series [7] the test system is AcH3. The series is described as follows: In-vivo activity, hippocampus of wild type mice: AcH3. The settings on record: i.p. 40 mg/kg, hippocampus one hour later. Also noted: species or system mouse. On the procedure: To determine the ability of the compounds to inhibit HDAC and PDE in the brain, the compound was administered to wild type mice by i.p. at a dose of 40 mg/kg (n=3). Another group of animals received the vehicle (1/1/8, v:v:v, DMSO/Tween 20/saline). One hour later, mice were sacrificed by cervical dislocation and their hippocampus was quickly dissected from the brains.
Total tissue homogenates were obtained by homogenizing the hippocampus in a cold lysis buffer with protease inhibitors (0.2 M NaCl, 0.1 M HEPES, 10% glycerol, 200 mM NaF, 2 mM Na4P2O7, 5 mM EDTA, 1 mM EGTA, 2 mM DTT, 0.5 mM PMSF, 1 mM Na3VO4 and Complete Protease Inhibitor Cocktail, Roche Diagnostics). The homogenate was then centrifuged at 14,000×g at 4° C. for 20 min and the supernatant aliquoted and stored at −80° C. Total protein concentrations were determined using the BioRad Bradford protein assay (BioRad Laboratories). Protein samples were analyzed as described in the “in vitro” section.

The target of series [8] is T3, HDAC2 (Homo sapiens, UniProt Q92769).
T3 construct: NM_001527; Cat. #50002) is full-length with C-terminal his tag; His (C); purchased BPS Biosciences 50002; host or cells: baculovirus infected Sf9 cells
The series is described as follows: HDAC enzyme activity assay (fluorogenic substrate), HDAC2. Format: biochemical. The settings on record: recombinant enzyme; read-out: HDAC2 inhibition (IC50).

Marks after values point to notes of the source that are not given here.

HDAC1, sequence (Q13547 whole entry): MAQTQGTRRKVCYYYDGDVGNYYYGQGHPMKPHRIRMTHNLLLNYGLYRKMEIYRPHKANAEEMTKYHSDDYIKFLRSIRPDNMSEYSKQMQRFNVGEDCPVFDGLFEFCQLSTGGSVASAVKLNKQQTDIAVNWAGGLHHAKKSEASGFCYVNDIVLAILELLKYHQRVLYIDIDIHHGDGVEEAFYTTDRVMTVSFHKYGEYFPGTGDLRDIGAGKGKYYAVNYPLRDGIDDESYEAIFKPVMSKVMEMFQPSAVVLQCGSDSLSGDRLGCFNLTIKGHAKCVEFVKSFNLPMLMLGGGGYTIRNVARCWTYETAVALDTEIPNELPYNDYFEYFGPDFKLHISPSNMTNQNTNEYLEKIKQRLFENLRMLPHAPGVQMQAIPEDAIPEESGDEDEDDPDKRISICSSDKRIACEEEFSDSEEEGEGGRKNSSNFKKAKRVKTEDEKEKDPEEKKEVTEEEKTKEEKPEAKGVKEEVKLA
T1 sequence (O15379 whole entry): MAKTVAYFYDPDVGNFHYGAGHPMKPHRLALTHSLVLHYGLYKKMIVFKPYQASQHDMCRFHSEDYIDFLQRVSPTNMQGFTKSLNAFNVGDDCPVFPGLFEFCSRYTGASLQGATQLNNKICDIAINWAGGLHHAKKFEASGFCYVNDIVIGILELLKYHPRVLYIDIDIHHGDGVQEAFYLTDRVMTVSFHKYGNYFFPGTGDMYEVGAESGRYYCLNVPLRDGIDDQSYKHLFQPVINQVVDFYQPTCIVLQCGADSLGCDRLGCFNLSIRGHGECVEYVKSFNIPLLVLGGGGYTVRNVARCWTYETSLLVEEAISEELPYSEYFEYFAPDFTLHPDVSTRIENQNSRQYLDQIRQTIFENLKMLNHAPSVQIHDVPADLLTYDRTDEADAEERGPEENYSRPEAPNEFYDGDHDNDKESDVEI
T1 sequence (Q9Y618 395-489 partner limits assumed): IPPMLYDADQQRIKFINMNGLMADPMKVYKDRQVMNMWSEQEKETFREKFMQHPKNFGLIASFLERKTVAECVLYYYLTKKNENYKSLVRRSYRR
T3 sequence (Q92769 whole entry): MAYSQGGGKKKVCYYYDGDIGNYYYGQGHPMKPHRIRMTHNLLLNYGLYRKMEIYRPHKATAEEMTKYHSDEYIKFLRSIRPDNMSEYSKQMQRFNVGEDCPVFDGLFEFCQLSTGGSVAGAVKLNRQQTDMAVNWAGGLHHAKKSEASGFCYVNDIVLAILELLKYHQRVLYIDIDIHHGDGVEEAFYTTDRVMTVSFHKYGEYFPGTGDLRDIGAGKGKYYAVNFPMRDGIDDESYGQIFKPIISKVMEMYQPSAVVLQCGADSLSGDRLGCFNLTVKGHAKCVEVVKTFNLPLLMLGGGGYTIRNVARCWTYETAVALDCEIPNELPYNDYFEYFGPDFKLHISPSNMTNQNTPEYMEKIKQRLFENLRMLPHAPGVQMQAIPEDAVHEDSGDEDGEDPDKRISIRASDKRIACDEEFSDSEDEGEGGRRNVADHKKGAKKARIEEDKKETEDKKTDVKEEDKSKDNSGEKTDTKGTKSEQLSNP

Usually IC50 stands for the concentration that gives 50% inhibition. The term Tmax denotes the time at which the peak concentration occurs. The Cmax is the maximum level reached in the sampled fluid or tissue. In the case of `CCCc1nn(C)c2c(=O)[nH]c(-c3cc(CC4CC(C(=O)NO)C4)ccc3OCC)nc12` (racemic) [Example 1-19, 3-[[4-ethoxy-3-(1-methyl-7-oxo-3-propyl-6H-pyrazolo[4,3-d]pyrimidin-5-yl)phenyl]methyl]cyclobutanecarbohydroxamic acid], the IC50 in series [1], in series [4], in series [5] and in series [8] was 10 to 1000 nM in each case. In addition, the EC50 in series [2] and in series [6] was 10 to 1000 nM each time. Further, the “CMax (brain; nmol/Kg)” value in series [3] (40 mg/kg) is given as 609 (178)^c nmol/Kg. The Tmax in series [3] (dosage 40 mg/Kg) turned out to be 15 min. In series [3] (dosage 40 mg/Kg), this molecule returned a Cmax of 15800 nM. In series [7], the “AcH3, increment in biological response vs basal” value is reported as “+++ (basal×2≦(+++)<basal×3)”.

As for `CCCc1nn(C)c2c(=O)[nH]c(-c3cc(S(=O)(=O)N4CCN(c5ncc(C(=O)NO)cn5)CC4)ccc3OCC)nc12` [Example 1-06, 2-(4-[3-(6,7-Dihydro-1-methyl-7-oxo-3-propyl-1H-pyrazolo[4,3-d]pyrimidin-5-yl)-4-ethoxyphenylsulfonyl]piperazin-1-yl)-N-hydroxypyrimidine-5-carboxamide], the IC50 in series [1] is 10 to 1000 nM; in series [4], less than 10 nM; in series [5], less than 10 nM; in series [8] it was 10 to 1000 nM. The EC50 in series [2] and in series [6] was 10 to 1000 nM each time. Besides, in series [3] (20 mg/kg), the “CMax (brain; nmol/Kg)” value is on record as 5.8 (1.8)^c nmol/Kg. In series [3] (dosage 20 mg/Kg), the time to peak (Tmax) worked out at 15 min. This molecule returned a peak concentration (Cmax) in series [3] (dosage 20 mg/Kg) of 283 nM. In addition, the “AcH3, increment in biological response vs basal” value in series [7] is listed as “+++ (basal×2≦(+++)<basal×3)”.

As to `CCCc1nn(C)c2c(=O)[nH]c(-c3cc(Cc4ccc(C(=O)NO)cc4)ccc3OCC)nc12` [Example 1-15, 4-[[4-ethoxy-3-(1-methyl-7-oxo-3-propyl-6H-pyrazolo[4,3-d]pyrimidin-5-yl)phenyl]methyl]benzenecarbohydroxamic acid], the IC50 in series [1] was in the range of 1000 to 10000 nM; in series [4], 10 to 1000 nM; in series [5], 10 to 1000 nM; in series [8], 1000 to 10000 nM. Moreover, the EC50 in series [2] and in series [6] was 10 to 1000 nM in each case. For the same molecule, in series [3] (20 mg/kg), the “CMax (brain; nmol/Kg)” value was 29 (8)^c nmol/Kg. The time to peak (Tmax) in series [3] (dosage 20 mg/Kg) was 15 min. In addition, the maximum concentration (Cmax) in series [3] (dosage 20 mg/Kg) was 653 nM. Besides, the “AcH3, increment in biological response vs basal” value in series [7] is given as “+ (basal×1 means no increment (+))”.

As for `CCCc1nn(C)c2c(=O)[nH]c(-c3cc(Cc4ccc(C(=O)NO)s4)ccc3OCC)nc12` [Example 1-16], the IC50 in series [1] was 1000 to 10000 nM; in series [4], 10 to 1000 nM; in series [5], 10 to 1000 nM; in series [8] it was 1000 to 10000 nM. Moreover, the EC50 in series [2] and in series [6] was 10 to 1000 nM in each case. Also, in series [3] (20 mg/kg), the “CMax (brain; nmol/Kg)” value is 102 (7)^c nmol/Kg. Moreover, the Tmax in series [3] (dosage 20 mg/Kg) came out at 30 min. Further, the peak level in series [3] (dosage 20 mg/Kg) (Cmax) was 11800 nM. Also, in series [7], the “AcH3, increment in biological response vs basal” value was “++ (basal×1≦(++)<basal×2)”.

Source of the values: patent publication US9573956B2, “Compounds as dual inhibitors of phosphodiesterases and histone deacetylases” (FUNDACIÓN PARA LA INVESTIGACIÓN MÉDICA APLICADA, priority 2013, dated 2017).
